Values quoted from earlier work as cited in patent US9556167B2, “TLR-agonist-conjugated antibody recruiting molecules (TLR-ARMs)” (YALE UNIVERSITY, priority 2012, dated 2017).

How the values were obtained:
[1] = test system: advanced prostate cancer patients
[2] = test system: aggressive end-stage prostate cancer

Row | SMILES | prolongation of life on average [1] | patients with reduced PSA levels and tumor sizes [2]
1 | CC(=O)O[C@@]12CO[C@@H]1C[C@H](O)[C@@]1(C)C(=O)[C@H](O)C3=C(C)[C@@H](OC(=O)[C@H](O)[C@@H](NC(=O)OC(C)(C)C)c4ccccc4)C[C@@](O)([C@@H](OC(=O)c4ccccc4)[C@H]21)C3(C)C [Taxotere] | 2.5 months | –
2 | CC(=O)O[C@H]1CC[C@@]2(C)C(=CC[C@@H]3[C@@H]2CC[C@]2(C)C(c4cccnc4)=CC[C@@H]32)C1 [abiraterone acetate] | – | ≤ 70 % of patients
